From the supplement of paper PMC10307832

Legend:
Experiment in all cases: relative viability (nuclei count vs DMSO), 5 days (fraction); higher = more cells survive
[1] = compound: CC1=CC(=NN1)NC2=CC(=NC(=N2)/C=C/C3=CC=CC=C3)N4CCN(CC4)C + C[C@]1(O)C[C@@H](c2nc(-c3ccc4ccc(-c5ccccc5)nc4c3)c3c(N)nccn32)C1 [Linsitinib] (partner 1 µM)
In short: (§1)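 After 5 days of treatment, lung cancer cells in 1536-well plates were fixed and stained in a single step (final 0.05% Triton X-100, 1% formaldehyde, 1 ug/ml Hoechst) and their nuclei counted on 4× images. Treatment had been applied by pin tool the day after seeding as one drug alone or as a fixed anchor-drug dose with five library-drug doses (not always all listed) in √10 steps. Relative viability is the nuclei count of treated wells divided by that of vehicle wells, and values are medians of duplicate plates.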

Obatoclax + Foretinib = compound: COC1=CC(c2cc3ccccc3[nH]2)=N/C1=C\c1[nH]c(C)cc1C [Obatoclax] + COc1cc2c(Oc3ccc(NC(=O)C4(C(=O)Nc5ccc(F)cc5)CC4)cc3F)ccnc2cc1OCCCN1CCOCC1 [Foretinib] (partner 0.25 µM)
In short: as §1

Obatoclax + Dasatinib = compound: COC1=CC(c2cc3ccccc3[nH]2)=N/C1=C\c1[nH]c(C)cc1C [Obatoclax] + Cc1nc(Nc2ncc(C(=O)Nc3c(C)cccc3Cl)s2)cc(N2CCN(CCO)CC2)n1 [Dasatinib] (partner 0.075 µM)
In short: as §1

Obatoclax + Phenformin = compound: COC1=CC(c2cc3ccccc3[nH]2)=N/C1=C\c1[nH]c(C)cc1C [Obatoclax] + N=C(N)NC(=N)NCCc1ccccc1 [Phenformin] (partner 250 µM)
In short: as §1

Cell Line | relative viability ([1]; first compound 0.08 µM) | relative viability ([1]; first compound 0.253 µM) | relative viability ([1]; first compound 0.8 µM) | relative viability ([1]; first compound 2.53 µM) | relative viability ([1]; first compound 8 µM) | relative viability (Obatoclax + Foretinib; first compound 0.01 µM) | relative viability (Obatoclax + Foretinib; first compound 0.03162 µM) | relative viability (Obatoclax + Foretinib; first compound 0.1 µM) | relative viability (Obatoclax + Foretinib; first compound 0.3162 µM) | relative viability (Obatoclax + Foretinib; first compound 1 µM) | relative viability (Obatoclax + Dasatinib; first compound 0.01 µM) | relative viability (Obatoclax + Dasatinib; first compound 0.03162 µM) | relative viability (Obatoclax + Dasatinib; first compound 0.1 µM) | relative viability (Obatoclax + Dasatinib; first compound 0.3162 µM) | relative viability (Obatoclax + Dasatinib; first compound 1 µM) | relative viability (Obatoclax + Phenformin; first compound 0.01 µM) | relative viability (Obatoclax + Phenformin; first compound 0.03162 µM) | relative viability (Obatoclax + Phenformin; first compound 0.1 µM) | relative viability (Obatoclax + Phenformin; first compound 0.3162 µM) | relative viability (Obatoclax + Phenformin; first compound 1 µM)
LXF-289 | 0.932 | 1.01 | 0.914 | 0.447 | 0.36 | 0.91 | 0.988 | 1.05 | 0.932 | 1.02 | 0.23 | 0.23 | 0.0916 | 0.221 | 0.154 | 0.484 | 0.53 | 0.496 | 0.505 | 0.458
NCI-H23 | 0.61 | 0.641 | 0.58 | 0.313 | 0.163 | 1.04 | 1 | 0.986 | 0.826 | 1.01 | 0.826 | 0.838 | 0.825 | 0.757 | 0.306 | 0.745 | 0.746 | 0.821 | 0.718 | 0.597
NCI-H322M | 0.89 | 0.965 | 0.895 | 0.515 | 0.323 | 0.997 | 1.02 | – | 0.853 | 0.696 | 0.257 | 0.259 | – | 0.259 | 0.28 | 0.855 | 0.603 | – | 0.824 | 0.62
NCI-H358 | 0.733 | 0.736 | 0.331 | 0.14 | 0.11 | 0.664 | 0.847 | 0.668 | 0.415 | 0.311 | 0.142 | 0.193 | 0.218 | 0.132 | 0.114 | 0.309 | 0.365 | 0.432 | 0.339 | 0.217
NCI-H441 | 0.483 | 0.584 | 0.444 | 0.196 | 0.0922 | 0.877 | 0.925 | 1.05 | 0.639 | 0.612 | 0.537 | 0.634 | 0.542 | 0.402 | 0.208 | 0.664 | 0.79 | 0.771 | 0.614 | 0.475
NCI-H460 | 0.668 | 0.869 | 0.539 | 0.0075 | 0.0036 | 0.993 | 1.01 | 0.947 | 0.456 | 0.157 | 0.497 | 0.385 | 0.384 | 0.343 | 0.21 | 0.448 | 0.53 | 0.441 | 0.25 | 0.112
NCI-H520 | 1.01 | 0.995 | 0.664 | 0.233 | 0.122 | 0.825 | 0.727 | 0.944 | 0.668 | 0.609 | 0.196 | 0.214 | 0.205 | 0.22 | 0.194 | 0.677 | 0.562 | 0.589 | 0.532 | 0.455
NCI-H596 | 0.941 | 1.18 | 1.16 | 0.757 | 0.409 | 0.758 | 0.798 | 0.823 | 0.535 | 0.492 | 0.618 | 0.475 | 0.464 | 0.502 | 0.394 | 0.768 | 0.764 | 0.741 | 0.711 | 0.583
NCI-H647 | 1.06 | 1.25 | 1.21 | 0.0813 | 0.0644 | 1.14 | 1.04 | 1.12 | 0.935 | 0.476 | 0.258 | 0.164 | 0.149 | 0.0862 | 0.0719 | 0.566 | 0.576 | 0.518 | 0.252 | 0.146
NCI-H661 | 0.618 | 0.579 | 0.663 | 0.44 | 0.182 | 0.977 | 1.03 | 1.05 | 0.936 | 0.763 | 0.875 | 0.846 | 0.427 | 0.762 | 0.4 | 0.284 | 0.256 | 0.262 | 0.263 | 0.234
NCI-H727 | 0.208 | 0.342 | 0.261 | 0.221 | 0.1 | 1.04 | 0.628 | 1.07 | 0.699 | 1.08 | 0.438 | 0.287 | 0.512 | 0.39 | 0.348 | 0.692 | 0.499 | 0.552 | 0.529 | 0.517
NCI-H838 | 0.999 | 1.25 | 0.857 | 0.747 | 0.122 | 1.03 | 1.11 | 0.996 | 1.1 | 0.858 | 0.298 | 0.25 | – | 0.277 | 0.226 | 0.567 | 0.622 | 0.362 | 0.46 | 0.322
NCI-H1355 | 0.797 | 0.843 | 0.779 | 0.62 | 0.41 | 1.04 | 0.936 | 0.986 | 0.94 | 0.529 | 0.836 | 0.675 | 0.538 | 0.68 | 0.535 | 0.456 | 0.458 | 0.431 | 0.44 | 0.397
NCI-H1395 | 1 | 1.15 | 1.04 | 0.533 | 0.361 | 0.938 | 0.702 | 0.929 | 1.01 | 0.766 | 0.417 | 0.416 | 0.399 | 0.412 | 0.432 | 0.449 | 0.38 | 0.428 | 0.467 | 0.44
NCI-H1437 | 1.09 | 1.12 | 0.88 | 0.416 | 0.083 | 1.22 | 1.28 | 1.21 | 1.16 | 1.25 | 0.559 | 0.295 | 0.384 | 0.355 | 0.445 | 0.242 | 0.317 | 0.314 | 0.296 | 0.246
NCI-H1563 | 1.23 | 1.34 | 1.18 | 0.718 | 0.514 | 0.903 | 0.91 | 1.04 | 0.824 | 0.806 | 0.457 | 0.437 | 0.453 | 0.457 | 0.469 | 0.621 | 0.696 | 0.629 | 0.683 | 0.586
